# Results as given in patent US11471414B2, “Compositions and methods for the treatment and prophylaxis of surgical site infections” (Polypid Ltd., priority 2014, dated 2022).
# Tested on: Staphylococcus aureus (ATCC 29213) preformed biofilm
# Assay: MBEC Physiology and Genetics Assay, eradication of an established biofilm
# Type: cell-based
# Method: The effectiveness of tri-calcium phosphate granules coated with a matrix composition according to embodiments of the invention in eradicating established biofilm was measured using the MBEC™ (Minimum Biofilm Eradication Concentration) Physiology and Genetics Assay.
# MBEC™ Test Method Overview: MBEC™ test method specifies the operational parameters required to grow and treat different bacterial biofilms in a high throughput screening assay. The assay device consists of a plastic lid with ninety-six (96) pegs and a corresponding receiver plate with ninety-six (96) individual wells that have a maximum 200 μL working volume. Biofilm is established on the pegs in a batch culture based model (i.e., no flow of nutrients into or out of an individual well) with gentle mixing. The established biofilm is transferred to a new receiver plate for disinfectant efficacy testing.
# Test Organisms: Staphylococcus aureus (an osteomyelitis-related strains); source: ATCC
# 29213; Dilution/Challenge Media: 1,000×TSB+10% human serum 24 hrs; Growth Media/agar: Tryptic Soy Broth/Tryptic Soy agar for 24 hrs Aerobic cond.
# TEST METHOD overview: The experimental process for high-throughput antimicrobial susceptibility testing using the hydroxyapatite coated MBEC™ P&G assay. This standard protocol was broken into a series of small steps, each of which is detailed in the sections below.
# Using a cryogenic stock (at −70° C.), a first sub-culture of Staphylococcus aureus was streaked out on OSA (organism specific agar). The plates were incubated at appropriate growth conditions for 20±2.0 hours and further stored at 4° C.
# A second sub-culture taken from the first sub-culture was streaked out on OSA. The plates were incubated at appropriate growth conditions for 20±2.0 hours. An isolated colony from the second sub-culture was aseptically removed from the OSA plate and inoculated into 50 mL of sterile bacterial liquid growth broth, followed by incubation appropriate growth conditions for 20±2.0 hours (at 150 rpm).
# The inoculum was adjusted to an approximate cell density of 10^6 CFU/mL.
# 150 μL of the remaining diluted organism were placed in each of the corresponding wells of an MBEC™ P&G device except the sterility controls (Table 5). The device was placed on an orbital shaker (110 RPM) in a humidified incubator at 37±1° C.
# The biofilm formed on the lid of the MBEC device was rinsed by dipping the lid into saline (˜30 seconds) to remove planktonic cells. The lid was then put on top of the challenge plate and incubated on a rotary shaker at 110 rpm at 35±2° C. for 24±2 hours.
# After incubation (specified above), planktonic cells were rinsed off the biofilm by dipping the lid into saline (˜20-30 seconds). The lid was then transferred to a neutralizer/recovery plate and put in a sonicator (˜30 minutes) to dislodge surviving biofilm.
# Following sonication, 100 μL from each well of the MBEC™ plate, were put into the first 12 empty wells of the first row of a 96 well-micro titer plate and were further diluted by 10 fold down each of the 8 rows (10^0-10^7 dilution). 5 μL from each well were then used for spotting prepared OSA plates. The agar plates were incubated at 37±1° C. and counted after approximately 24-48 hours of incubation. The arithmetic mean of the number of colonies counted on the plates was calculated.
# 100 μL of the sterile neutralizer was added to each well of the recovery plate to top up the volume back to 200 μL. The refilled plate is incubated at 35±2° C. for 24±2 hours.
# Comparator MBEC results were determined following the 24±2 hour incubation using the plate reader.
# The log density for one peg was calculated as follows: LOG10(CFU/peg)=LOG10[(X/B)(D)] where: X=mean CFU; B=volume plated (0.02 mL) and D=dilution.
# The overall biofilm accumulation was determined by calculating the mean of the log densities calculated.
# LOG10 reduction for each dilution was calculated as follows: LOG10 Reduction=Mean LOG10 Growth Control−Mean LOG10 Test Sample.
substance,measurement,setting,value
Gentamicin,Log Reduction (Log R) vs. GC (growth control),D 0.5,1.11
same,Average Log10 CFU/peg recoveries,D 0.5 (μg),3.48 Log10 CFU/peg
same,Log Reduction (Log R) vs. GC (growth control),D 1.0,1.38
same,Average Log10 CFU/peg recoveries,D 1.0 (μg),3.21 Log10 CFU/peg
same,Log Reduction (Log R) vs. GC (growth control),D 2.0,2.90
same,Average Log10 CFU/peg recoveries,D 2.0 (μg),1.69 Log10 CFU/peg
same,Log Reduction (Log R) vs. GC (growth control),D 4.0,3.29
same,Average Log10 CFU/peg recoveries,D 4.0 (μg),1.31 Log10 CFU/peg
same,Log Reduction (Log R) vs. GC (growth control),D 8.0,4.59
same,Average Log10 CFU/peg recoveries,D 8.0 (μg),0.00 Log10 CFU/peg
same,Log Reduction (Log R) vs. GC (growth control),D 16,4.59
same,Average Log10 CFU/peg recoveries,D 16 (μg),0.00 Log10 CFU/peg
same,Log Reduction (Log R) vs. GC (growth control),D 32,4.59
same,Average Log10 CFU/peg recoveries,D 32 (μg),0.00 Log10 CFU/peg
